For this assay, the system named is HSV-1 F. The assay can be described thus: Cell-to-cell spread assay in Vero cell monolayers. Type of assay: cell-based. Particulars: 500 nM, 48 h. The method, then:
Vero cells grown to confluency on glass cover slips in 24-weel tissue culture plates are infected for 4 h at 37° C. with a constant virus amount of 400 TCID50/well. One median tissue culture infective dose (1 TCID50) is the amount of a cytopathogenic agent, such as a virus, that will produce a cytopathic effect in 50% of the cell cultures inoculated. The virus inoculum is subsequently removed, the cells washed twice with PBS and further incubated for 2 days at 37° C. in 1 ml DMEM, 2% FCS, Pen/Strep containing an excess of either different anti-HSV antibodies or polyclonal anti-HSV control serum in order to prevent viral spreading via the supernatant Viral antigens of HSV-infected cells are detected with a fluorescence labelled polyclonal goat-anti-HSV-serum (BETHYL Labolatories, Montgomery, Tex. USA, Catalog No. A190-136F, Lot No. A190-136F-2).
Two days after infection spreading of the virus was detected with fluorescence labeled polyclonal goat-anti-HSV serum using a Leica DM IRE2 confocal microscope at 40-fold magnification.
For spreading within a host HSV uses two mechanisms: release of cell-free particles and direct, cell-to-cell spread. […] Viral antigens were detected by staining of HSV-1 infected cell monolayers with FITC-conjugated polyclonal goat-anti-HSV serum (BETHYL, Montgomery, Tex., USA) diluted 1:100 in blocking buffer. […]

Entries after “also recorded” stand apart in the source; their conditions may differ.

For “mAb 2c: murine monoclonal IgG2a antibody specific for glycoprotein B of HSV1 and HSV2; VH SEQ ID NO: 9, VL SEQ ID NO: 10”, the “inhibition of cell-to-cell spread” value is on record as “inhibit at a concentration of 500 nM the cell-to-cell spread completely; also recorded: completely abrogated HSV-1 spread”.

(Values after patent US9657088B2, “Anti-HSV antibody” (priority 2009, dated 2017).)
